We go through four compounds from USRE44987E1, “Bromo-phenyl substituted thiazolyl dihydropyrimidines” (Sunshine Lake Pharma Co., Ltd., priority 2007, dated 2014).

In experiment [1] the test system is hepatitis B virus. Description: Antiviral action on hepatitis B virus in HepG2.2.15 cells (HBV DNA dot-blot hybridization). The format is cell-based. The settings on record: 50% reduction of intra- or extracellular hepatitis B-specific band. As to the method: The antiviral action of the compounds of the invention on hepatitis B virus is investigated by methods based on those described by M. A. Sells et al., Proc. Natl. Acad. Sci., 84, 1005-1009 (1987) and B. E. Korba et al., Antiviral Research 19, 55-70 (1992).
The antiviral tests are carried out in 96-well microtiter plates. The first vertical row of the plate receives only growth medium and HepG2.2.15 cells. It serves as virus control.
Stock solutions of the test compounds (50 mM) are initially dissolved in DMSO, and further dilutions are prepared in the HepG2.2.15 growth medium. The compounds according to the invention are usually pipetted in a test concentration of 100 μM (1st test concentration) in each case into the second vertical test row of the microtiter plate and subsequently diluted in twofold steps […] in growth medium plus 2% by weight of fetal calf serum (volume 25 μl)
Each well of the microtiter plate then contains 225 μl of HepG2.2.15 cell suspension (5×10^4 cells/ml) in growth medium plus 2% by weight of fetal calf serum. The test mixture is incubated at 37° C. and 5% CO2 (v/v) for 4 days.
The supernatant is then aspirated off and discarded, and the wells receive 225 μl of freshly prepared growth medium. The compounds according to the invention are each added anew as 10-fold concentrated solution in a volume of 25 μl. The mixtures are incubated for a further 4 days
The supernatant and/or cells are then harvested and sucked by means of a vacuum onto 96-well dot-blot chambers covered with a nylon membrane (in accordance with the manufacturer's information).
After the supernatants or lysed cells is transferred to the nylon membrane of the blot apparatus (see above), the intra- or extracellular supernatants of the HepG2.2.15 cells are denatured (1.5 M NaCl/0.5 N NaOH), neutralized (3 M NaCl/0.5M Tris HCl, pH 7.5) and washed (2×SSC). The DNA is then baked onto the membrane by incubating the filters at 120° C. for 2-4 hours.
Detection of the viral DNA from the treated HepG2.2.15 cells on the nylon filters is usually carried out with nonradioactive, digoxigenin-labeled hepatitis B-specific DNA probes, each of which is labeled with digoxigenin, purified and employed for the hybridization in accordance with the manufacturer's information.
The prehybridization and hybridization take place in 5×SSC, 1×blocking reagent, 0.1% by weight N-lauroylsarcosine, 0.02% by weight SDS and 100 μg of herring sperm DNA. The prehybridization takes place at 60° C. for 30 minutes, and the specific hybridization takes place with 20 to 40 ng/ml of the digoxigenized, denatured HBV-specific DNA (14 hours, 60° C.). The filters are then washed.
The immunological detection of the digoxigenin-labeled DNA took place in accordance with the manufacturer's information: […]

The test system of experiment [2] is hepatitis B virus. The settings on record: examples of U.S. Pat. No. 7,074,784, values as described in that patent; cited from earlier work.
Where [3] appears, read: Hepatitis B virus, HepG2.2.15, HepG2.2.15 cells.

Like-named read-outs stand apart in the source and are kept apart here.

As usually defined, the IC50 is the concentration that inhibits the measured activity by half. In the case of `CCOC(=O)C1=C(CN2CCOCC2)NC(c2nccs2)=NC1c1ccc(F)cc1Br` (centres unmarked) [Example 5, Ethyl 4-(2-bromo-4-fluorophenyl)-2-(thiazol-2-yl)-6-(4-morpholinylmethy)-1,4-dihydropyrimidine-5-carboxylic ester], the half-maximal inhibitory concentration (IC50) is 0.2 nM in the experiment on hepatitis B virus [1] (setting [3]) and 2 to 4 nM in the experiment on hepatitis B virus [2].
`COC(=O)C1=C(CN2CCOCC2)NC(c2nccs2)=NC1c1ccc(F)cc1Br` (single isomer, unassigned; (-)) [(−)-6] showed an IC50 in the experiment with hepatitis B virus [1] (HepG2.2.15 cells) of 0.2 nM.
Same read-out and setting: the value for `CCOC(=O)C1=C(CN2CCOCC2)NC(c2nccs2)=NC1c1ccc(F)cc1Br` (single isomer, unassigned; (-)) [(−)-5] was 0.1 nM.
In the experiment on hepatitis B virus [1] (setting [3]), `COC(=O)C1=C(CN2CCOCC2)NC(c2nccs2)=NC1c1ccc(F)cc1Br` (centres unmarked) [Example 6, Methyl 4-(2-bromo-4-fluorophenyl)-2-(thiazol-2-yl)-6-(4-morpholinylmethy)-1,4-dihydropyrimidine-5-carboxylic ester] returned a 50% inhibitory concentration (IC50) of 0.3 nM.
